Patent US9951014B2, “Mammalian and bacterial nitric oxide synthase inhibitors” (Northwestern University, priority 2014, dated 2018)
Where two headings read alike, the source gives them in different places.

What was measured:
rat nNOS = rat nNOS (Rattus norvegicus (Rat), UniProt P29476); assay: Oxyhemoglobin NO capture assay with purified NOS; assay type: biochemical
Procedure: (§1) The oxyhemoglobin NO assays were performed with purified NOSs using a Biotek Gen5™ microplate reader as previously reported. […] For iNOS, calmodulin and CaCl2 were omitted because iNOS is calcium independent. […] The calculated standard deviations of the assays were less than 10% with all NOSs. […] The selectivity of antagonism of nNOS was determined by calculating the ratios of the Ki values with iNOS or eNOS to those with rat nNOS.

murine iNOS = murine iNOS (Mus musculus (Mouse), UniProt P29477); assay: Oxyhemoglobin NO capture assay with purified NOS; assay type: biochemical
Procedure: as §1

bovine eNOS = bovine eNOS (Bos taurus (Bovine), UniProt P29473); assay: Oxyhemoglobin NO capture assay with purified NOS; assay type: biochemical
Procedure: as §1

bsNOS = bsNOS (Bacillus subtilis (strain 168), UniProt O34453); assay: Imidazole displacement, spectral binding constant KS
[1] = Plasma pharmacokinetics and brain distribution in mice; assay type: in vivo, male BALB/c mice; details: for C0: back extrapolated conc.; for clearance / half-life: 2 mg/kg; for Vd: read-out: Vss
Procedure: Pharmacokinetic study. A group of forty-eight male mice were divided into two groups: Group 1 (2 mg/kg; i.v.) and Group 2 (10 mg/kg; p.o.) with each group comprising twenty-four mice. […] The blood samples were collected from a set of three mice at each time point in labeled micro centrifuge tubes containing K2EDTA as anticoagulant. Plasma samples were separated by centrifugation of whole blood and stored below −70° C. until bioanalysis. […] Tissue samples were homogenized using ice-cold phosphate buffer saline (pH 7.4) and homogenates were stored below −70° C. until analyzed. The total homogenate volume was three times that of the tissue weight. […] Specific LC-MS/MS and MRM conditions are described below. Pharmacokinetic parameters were calculated using the non-compartmental analysis tool of Phoenix WinNonlin (Version 6.3).

[2] = ratio Ki iNOS / Ki nNOS, Table 13
[3] = ratio Ki eNOS / Ki nNOS, Table 13
[4] = male, BALB/c, mouse, brain, iv, i.v. 2 mg/kg
[5] = male, BALB/c, mouse, iv, i.v. 2 mg/kg, plasma
[6] = male, BALB/c, mouse, plasma, iv, i.v. 2 mg/kg
[7] = male, BALB/c, mouse, po, p.o. 10 mg/kg, plasma
[8] = ratio Ki iNOS / Ki rat nNOS, Table 9
[9] = ratio Ki eNOS / Ki rat nNOS, Table 9

bsNOS, sequence (O34453 whole entry): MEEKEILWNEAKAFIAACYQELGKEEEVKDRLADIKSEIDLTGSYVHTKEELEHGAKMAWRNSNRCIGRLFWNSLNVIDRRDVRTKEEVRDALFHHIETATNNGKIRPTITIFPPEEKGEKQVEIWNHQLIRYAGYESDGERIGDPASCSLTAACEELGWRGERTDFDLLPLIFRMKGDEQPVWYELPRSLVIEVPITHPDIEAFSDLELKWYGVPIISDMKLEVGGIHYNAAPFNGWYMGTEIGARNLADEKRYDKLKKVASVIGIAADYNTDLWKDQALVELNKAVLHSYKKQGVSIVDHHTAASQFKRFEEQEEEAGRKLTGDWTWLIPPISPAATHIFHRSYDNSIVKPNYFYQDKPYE

## Cc1cc(N)nc(CCc2cccc([C@H](N)Cc3cc(C)cc(N)n3)c2)c1 [Compound 3R, (R)-6-(2-Amino-2-(3-(2-(6-amino-4-methylpyridin-2-yl)ethyl)phenyl)ethyl)-4-methylpyridin-2-amine]
Rat nNOS; Table 13, read-out: nNOS Ki
  Ki: 0.122 µM
Murine iNOS; Table 13, read-out: iNOS Ki
  Ki: 15.6 µM

## Cc1cc(N)nc(CCc2cccc([C@@H](N)Cc3cc(C)cc(N)n3)c2)c1 [Compound 3S, (S)-6-(2-Amino-2-(3-(2-(6-amino-4-methylpyridin-2-yl)ethyl)phenyl)ethyl)-4-methylpyridin-2-amine]
Rat nNOS; Table 13, read-out: nNOS Ki
  Ki: 0.144 µM
Murine iNOS; Table 13, read-out: iNOS Ki
  Ki: 17.7 µM

## Cc1ccnc(CCc2cccc([C@H](N)Cc3cc(C)cc(N)n3)c2)c1 [Compound 5R, (R)-6-(2-Amino-2-(3-(2-(4-methylpyridin-2-yl)ethyl)phenyl)ethyl)-4-methylpyridin-2-amine]
Rat nNOS; Table 13, read-out: nNOS Ki
  Ki: 4.37 µM
Murine iNOS; Table 13, read-out: iNOS Ki
  Ki: > 100 µM
Murine iNOS; [2]
  i/n selectivity: >22
Bovine eNOS; [3]
  e/n selectivity: 240

## Cc1ccnc(CCc2cccc([C@@H](N)Cc3cc(C)cc(N)n3)c2)c1 [Compound 5S, (S)-6-(2-Amino-2-(3-(2-(4-methylpyridin-2-yl)ethyl)phenyl)ethyl)-4-methylpyridin-2-amine]
Rat nNOS; Table 13, read-out: nNOS Ki
  Ki: 0.903 µM
Murine iNOS; Table 13, read-out: iNOS Ki
  Ki: > 100 µM
Murine iNOS; [2]
  i/n selectivity: >110
Bovine eNOS; Table 13, read-out: eNOS Ki
  Ki: 328 µM
Bovine eNOS; [3]
  e/n selectivity: 363

## Cc1cc(N)nc(CCc2cccc(C(O)Cc3cc(C)cc(N)n3)c2)c1 (centres unmarked) [Compound 10]
bsNOS; KS bsNOS, imidazole displacement, Tables 1 and 4
  Kd: 1.89 µM

## Cc1cc(N)nc(COC[C@H](N)[C@H](C)OCc2cc(C)cc(N)n2)c1 [Compound 11]
bsNOS; KS (bsNOS), Table 5
  Kd: 1.1 ± 0.1 µM

## CCN(CCc1cccc(F)c1)Cc1cccc(NC(=N)c2cccs2)c1 [Compound 15]
bsNOS; KS (bsNOS), Table 5
  Kd: 119 ± 25 µM

## Nc1ccc2cc(CCNCc3cccc(F)c3)ccc2n1 [Compound 16]
bsNOS; KS (bsNOS), Table 5
  Kd: 95 ± 20 µM

## Nc1ccc2cc(CNCCc3cccc(F)c3)ccc2n1 [Compound 17]
bsNOS; KS (bsNOS), Table 5
  Kd: 420 ± 130 µM

## Nc1ccc2ccc(CCNCc3cccc(F)c3)cc2n1 [Compound 18]
bsNOS; KS (bsNOS), Table 5
  Kd: 0.97 ± 0.04 µM

## CNCCN(C)c1cc(C#N)cc(CCc2cc(C)cc(N)n2)c1 [Compound 19c, 3-(2-(6-Amino-4-methylpyridin-2-yl)ethyl)-5-(methyl(2-(methylamino)ethyl)amino)benzonitrile]
Rat nNOS; Table 9, read-out: Ki Rat nNOS
  Ki: 0.024 µM
Murine iNOS; Table 9, read-out: Ki iNOS
  Ki: 3.67 µM
Bovine eNOS; Table 9, read-out: Ki eNOS
  Ki: 24.9 µM
[1]; i.v. 2 mg/kg, brain
  AUClast: 789.07 ng·h/g
  CL: 21.18 mL/min/kg
  C0: 100.28 ng/g
[1]; i.v. 2 mg/kg, plasma
  CL: 184.16 mL/min/kg
  T1/2: 1.12 h
[1]; [4]
  clearance: 21 mL/min/kg
  half-life: 24.8 h
[1]; male, BALB/c, mouse, iv, i.v. 2 mg/kg, brain
  Vd: 44 L/kg
[1]; [5]
  AUC(0-inf): 181 ng·h/mL
  AUC(0-t): 180 ng·h/mL
  Vd: 14.8 L/kg
[1]; male, BALB/c, mouse, iv, i.v. 2 mg/kg, plasma, read-out: C0
  C0: 472 ng/mL
[1]; [6]
  clearance: 184 mL/min/kg
  half-life: 1.1 h
[1]; male, BALB/c, mouse, po, p.o. 10 mg/kg, brain
  Cmax: 39.3 ng/g
[1]; male, BALB/c, mouse, po, p.o. 10 mg/kg, brain, read-out: Tmax
  Tmax: 4 h
[1]; [7]
  AUC(0-inf): 182 ng·h/mL
  AUC(0-t): 162 ng·h/mL
  Cmax: 50.8 ng/mL
[1]; male, BALB/c, mouse, po, p.o. 10 mg/kg, plasma, read-out: Tmax
  Tmax: 0.25 h
[1]; p.o. 10 mg/kg vs i.v. 2 mg/kg, AUClast used
  % F (oral bioavailability): 18%
[1]; p.o. 10 mg/kg, brain
  AUClast: 673.67 ng·h/g
[1]; p.o. 10 mg/kg, plasma
  Tmax: 0.25 h

## Nc1ccc2ccc(CNCCCc3cccc(F)c3)cc2n1 [Compound 21]
bsNOS; KS (bsNOS), Table 5
  Kd: 3.2 ± 0.1 µM

## CCNCCN(C)c1cc(C#N)cc(CCc2cc(C)cc(N)n2)c1 [Compound 21a]
Rat nNOS; Table 9, read-out: Ki Rat nNOS
  Ki: 0.064 µM
Murine iNOS; Table 9, read-out: Ki iNOS
  Ki: 11.5 µM
Murine iNOS; [8]
  i/n selectivity: 178.0
Bovine eNOS; Table 9, read-out: Ki eNOS
  Ki: 37.6 µM
Bovine eNOS; [9]
  e/n selectivity: 583.7

## Cc1cc(N)nc(CCc2cc(C#N)cc(N(C)CCNC(C)C)c2)c1 [Compound 21b]
Rat nNOS; Table 9, read-out: Ki Rat nNOS
  Ki: 0.125 µM
Murine iNOS; Table 9, read-out: Ki iNOS
  Ki: 45.1 µM
Murine iNOS; [8]
  i/n selectivity: 361.5
Bovine eNOS; Table 9, read-out: Ki eNOS
  Ki: 39.9 µM
Bovine eNOS; [9]
  e/n selectivity: 320.1

## Cc1cc(N)nc(CCc2cc(C#N)cc(N(C)CCNC3CC3)c2)c1 [Compound 21c]
Rat nNOS; Table 9, read-out: Ki Rat nNOS
  Ki: 0.114 µM
Murine iNOS; Table 9, read-out: Ki iNOS
  Ki: 28 µM
Murine iNOS; [8]
  i/n selectivity: 246.6
Bovine eNOS; Table 9, read-out: Ki eNOS
  Ki: 31.1 µM
Bovine eNOS; [9]
  e/n selectivity: 274.0

## Cc1cc(N)nc(CCc2cc(C#N)cc(N(C)CCc3cccc(F)c3)c2)c1 [Compound 21d]
Rat nNOS; Table 9, read-out: Ki Rat nNOS
  Ki: 1.8 µM
Murine iNOS; Table 9, read-out: Ki iNOS
  Ki: 45.3 µM
Murine iNOS; [8]
  i/n selectivity: 33.7

## Cc1cc(N)nc(CCc2cc(C#N)cc(NCCc3cccc(F)c3)c2)c1 [Compound 22, 3-(2-(6-Amino-4-methylpyridin-2-yl)ethyl)-5-((3-fluorophenethyl)amino)benzonitrile]
bsNOS; KS (bsNOS), Table 5
  Kd: 62 ± 25 µM
